The values that follow come from the METLIN SMRT retention time set (Domingo-Almenara et al. 2019).

SMILES strings stand for the structures.

A short description of this data set: gradient 5% acetonitrile 3 min, to 50% in 2 min, to 85% in 15 min, held 3 min, 100 µL/min. The settings on record: column: Zorbax Extend-C18 2.1 x 50 mm; eluents: water / acetonitrile, 0.1% formic acid. Put shortly:
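Values are retention times taken from adduct peaks that software picked and an analyst inspected. The pure standards were run as mixtures of ~100 molecules on HPLC linked to a quadrupole time-of-flight mass spectrometer, in positive and negative ionization mode. A Zorbax Extend-C18 column (2.1 × 50 mm, 1.8 μm) was used at 100 μL/min with water and acetonitrile, each including 0.1% formic acid.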
`Cn1cc(CN2CCC(C(=O)NCCCN3CCCCC3)CC2)c2cc(Cl)ccc21` yielded an RP-LC retention time of 586 s.

In turn, `COC(=O)c1ncn2c1C(=O)N(Cc1ccc(Cl)cc1)C(C)(C(=O)NCc1ccccc1)C2` (stereo not drawn) showed an RP-LC retention time of 755 s. With `CN1C(=O)C(C)(C(=O)Nc2ccc(Cl)cc2F)Oc2cccnc21` (stereo not drawn), the RP-LC retention time amounted to 894 s.

For the molecule `COc1ccc(NC(=O)C2c3cc(OC)c(OC)cc3C(=O)N3CCc4ccccc4C23)cc1OC` (stereo not drawn), the RP-LC retention time came to 744 s. With `COc1ccc(CN2CCc3nc(N4CCOCC4)ncc3C2)c(OC)c1` the figure was 611 s; with `Cc1ccc(NC(=O)Nc2nccn(-c3cccc(F)c3)c2=O)cc1C`, 1020 s; with `Cc1ccc(CN2CC(=O)N(CCc3ccccn3)C(c3cccs3)C2=O)cc1` (stereo not drawn), 559 s.

For the molecule `CCS(=O)(=O)NCc1ccc2c(c1)CCN2C(=O)c1cccc(C)c1`, the RP-LC retention time stood at 815 s. Under `CSc1nc(Nc2cccc(Cl)c2)c(C#N)c(-c2ccccc2)n1` stands 1280 s; under `Cc1cccc(-c2nc(Cn3nnc(C(=O)NCc4ccc(F)c(Cl)c4)c3C)c(C)o2)c1`, 1180 s; under `Cn1cc2c(N3CCCC3)nc(C(=O)NCc3ccccc3C(F)(F)F)nc2n1`, 646 s. `CCc1nn2c(=O)cc(CSc3nnc(-c4cccc(C)c4)o3)nc2s1` had an RP-LC retention time of 800 s. On to `O=C(CCCCCCC(=O)Nc1ccccc1)NO`, for which the RP-LC retention time turned out to be 660 s. Consider `Cn1cccc1C(=O)N1CC(c2nc(CCOCC3CCCC3)no2)C1`, for which the RP-LC retention time was 934 s. Under `COc1ccc(Cl)cc1NC(=O)Cc1nnc(-c2ccc3ncccc3c2)o1` stands 797 s.

As for `Cc1cc(=O)n(CC(=O)Nc2ccc(Cl)cc2)c(N2CCCC2)n1`, the RP-LC retention time worked out at 672 s.

As for `Cc1cc(C)c(CNS(=O)(=O)c2cc(-c3nc(C)c(C)s3)cs2)c(C)c1`, the RP-LC retention time stood at 1310 s. In the case of `COC(=O)c1c2c(nc3ccccc13)CCN(C(=O)Nc1cc(OC)ccc1OC)C2`, the RP-LC retention time came to 839 s. As to `CC1=C(c2ccc(C)cc2)S(=O)(=O)N=C1N1CCCN(C(=O)CC2CCCCC2)CC1`, the RP-LC retention time stood at 962 s. With `COC(=O)c1cnc2nc(C)ccc2c1Nc1ccc(C)cc1Cl`, the RP-LC retention time worked out at 752 s. Under `COC[C@@H]1CN(S(=O)(=O)c2cccc(C#N)c2)C[C@H]1c1ccccn1` stands 715 s. On to `CCn1cc(S(=O)(=O)N2CC(Oc3cccc(-c4nc(C)no4)c3)C2)cn1`, for which the RP-LC retention time was 839 s. With `O=C(NCc1ccccc1F)C1CCCN(c2cnc3nccnc3c2)C1` (stereo not drawn) the figure was 680 s; with `O=C(Nc1ccccc1F)C1CCCN(S(=O)(=O)Cc2ccccc2)C1` (stereo not drawn), 950 s; with `C[C@@]1(O)CCN(Cc2cccc(F)c2F)C[C@H]1N1CCCC1`, 563 s. Take `CCCn1nnc(NCc2ccc(-c3cc(Cl)cc(Cl)c3)o2)n1`: the RP-LC retention time was determined as 1210 s.

`Cc1ccc(C)c(Cn2nnc(C(=O)O)c2-c2ccccn2)c1` showed an RP-LC retention time of 752 s. Consider `CN(C)C(=O)c1cn(-c2ccc(-c3nc(C(C)(C)C)no3)cn2)cn1`, for which the RP-LC retention time worked out at 808 s. With `CCc1ccc(CNC(=O)Cc2nnc(-c3ccc4ncccc4c3)o2)cc1` the figure was 758 s; with `CCOC(=O)c1oc2ccc(S(=O)(=O)N3CC4CN(C)CC(C3)O4)cc2c1C`, 649 s; with `Cc1ccc(-c2noc(-c3ccc4c(c3)OCCO4)n2)cc1`, 1250 s. The molecule `COc1cc(CN2CCC3(CC2)CC(C)(O)CCO3)cc(OC)c1` (stereo not drawn) displayed an RP-LC retention time of 561 s. The molecule `COCCn1nc2n(c1=O)CCN(Cc1cccc(OC)n1)CC2` yielded an RP-LC retention time of 515 s.
